What was measured:
[1] = Therapeutic index, ratio of CC50 for human MT4 cells to EC50 for HIV-1 NL4-3 infected in human MT4 cells; type: toxicity, cell-based; details: read-out: Ratio CC50/EC50
[2] = tested on: Human immunodeficiency virus 1; test: Antiviral activity against wild type HIV 1 NL4-3 infected in human MT4 cells assessed as inhibition of virus-induced cytopathic effect after 5 days by MTT assay; type: functional, organism-based; details: Human immunodeficiency virus 1, NL4-3, MT4, 120 h
[3] = Cytotoxicity against human MT4 cells assessed as reduction in cell viability after 5 days by MTT assay; type: cell-based
[4] = tested on: Human immunodeficiency virus 1; test: Antiviral activity against HIV 1 harboring reverse transcriptase Y181C mutant infected in human MT4 cells assessed as inhibition of virus-induced cytopathic effect after 5 days by MTT assay; type: functional, organism-based; details: Human immunodeficiency virus 1, MT4, 120 h
[5] = tested on: Human immunodeficiency virus 1; test: Antiviral activity against HIV-1 harboring reverse transcriptase Y188L mutant infected in human MT4 cells assessed as inhibition of virus-induced cytopathic effect after 5 days by MTT assay; type: functional, organism-based; details: Human immunodeficiency virus 1, MT4, 120 h
[6] = tested on: Human immunodeficiency virus 1; test: Antiviral activity against HIV-1 harboring reverse transcriptase K103N mutant infected in human MT4 cells assessed as inhibition of virus-induced cytopathic effect after 5 days by MTT assay; type: functional, organism-based; details: Human immunodeficiency virus 1, MT4, 120 h
[7] = tested on: Human immunodeficiency virus 1; test: Resistance index, ratio of EC50 for HIV-1 harboring reverse transcriptase Y181C mutant to EC50 for wild type HIV-1 NL4-3; type: functional
[8] = tested on: Human immunodeficiency virus 1; test: Resistance index, ratio of EC50 for HIV-1 harboring reverse transcriptase Y188L mutant to EC50 for wild type HIV-1 NL4-3; type: functional
[9] = tested on: Human immunodeficiency virus 1; test: Resistance index, ratio of EC50 for HIV-1 harboring reverse transcriptase K103N mutant to EC50 for wild type HIV-1 NL4-3; type: functional
[10] = tested on: Human immunodeficiency virus 1; test: Resistance index, ratio of ID50 for recombinant HIV-1 His-tagged reverse transcriptase p66/p51 K103N mutant to ID50 for recombinant wild type HIV-1 reverse transcriptase His-tagged p66/p51
[11] = tested on: Human immunodeficiency virus 1; test: Resistance index, ratio of ID50 for recombinant HIV-1 His-tagged reverse transcriptase p66/p51 L100I mutant to ID50 for recombinant wild type HIV-1 reverse transcriptase His-tagged p66/p51
[12] = target: Human immunodeficiency virus type 1 reverse transcriptase (Human immunodeficiency virus 1) (UniProt Q72547)
Description: Inhibition of recombinant wild type HIV-1 His-tagged reverse transcriptase p66/p51 expressed in Escherichia coli assessed as reduction in [3H]dTTP incorporation using poly(rA)/oligo(dT) as template/primer after 20 mins by scintillation counting analysis

[13] = tested on: Human immunodeficiency virus type 1 reverse transcriptase (Human immunodeficiency virus 1), Q72547 [K103N]
Description: Inhibition of recombinant HIV-1 His-tagged reverse transcriptase p66/p51 K103N mutant expressed in Escherichia coli assessed as reduction in [3H]dTTP incorporation using poly(rA)/oligo(dT) as template/primer after 20 mins by scintillation counting analysis

[14] = tested on: Human immunodeficiency virus type 1 reverse transcriptase (Human immunodeficiency virus 1), Q72547 [Y181I]
[15] = tested on: Human immunodeficiency virus type 1 reverse transcriptase (Human immunodeficiency virus 1), Q72547 [L100I]
[16] = tested on: Human immunodeficiency virus 1; test: Resistance index, ratio of ID50 for recombinant HIV-1 His-tagged reverse transcriptase p66/p51 Y181I mutant to ID50 for recombinant wild type HIV-1 reverse transcriptase His-tagged p66/p51

SMILES	selectivity ratio [1]	EC50 [2]	CC50 at 120 h [3]	EC50 [4]	EC50 [5]	EC50 [6]	Ratio EC50 [7]	Ratio EC50 [8]	Ratio EC50 [9]	Ratio [10]	Ratio [11]	ID50 [12]	ID50 [13]	ID50 [14]	ID50 [15]	Ratio [16]
CCC(C)Sc1nc(C(OC)c2c(Cl)cccc2Cl)c(C)c(=O)[nH]1 (stereo not drawn)	36400	0.9 nM	32800 nM	2800 nM	5800 nM	770 nM	3111	6444	856	247	347	15 nM	3700 nM	> 40000 nM	5200 nM	–
CCCNc1nc(C(OC)c2c(F)cccc2Cl)c(C)c(=O)[nH]1 (stereo not drawn)	8600	9 nM	77400 nM	940 nM	5000 nM	150 nM	104	555	17	8	–	65 nM	540 nM	2800 nM	1700 nM	43
CO[C@@H](c1nc(SC(C)C)[nH]c(=O)c1C)c1c(F)cccc1Cl	> 722000	0.09 nM	> 65000 nM	0.9 nM	1 nM	0.6 nM	10	11	10	17	200	2 nM	35 nM	1100 nM	400 nM	550
COC(c1nc(NC(C)C)[nH]c(=O)c1C)c1c(Cl)cccc1Cl (stereo not drawn)	651	96 nM	62500 nM	5800 nM	12200 nM	3000 nM	60	127	31	15	11	340 nM	5200 nM	7800 nM	3800 nM	23
CCCNc1nc(C(OC)c2c(Cl)cccc2Cl)c(C)c(=O)[nH]1 (stereo not drawn)	3280	15 nM	49200 nM	1700 nM	7600 nM	210 nM	113	507	14	13	18	120 nM	1600 nM	3700 nM	2200 nM	31
CCCN(C)c1nc(C(OC)c2c(F)cccc2Cl)c(C)c(=O)[nH]1 (stereo not drawn)	> 18500	4 nM	> 74100 nM	98 nM	120 nM	12 nM	24	30	3	–	36	26 nM	288 nM	1100 nM	950 nM	42
COC(c1nc(NC2CCCC2)[nH]c(=O)c1C)c1c(F)cccc1Cl (stereo not drawn)	10000	7 nM	70300 nM	390 nM	3700 nM	170 nM	56	529	24	3	27	40 nM	120 nM	1500 nM	1100 nM	37
COC(c1nc(SC(C)C)[nH]c(=O)c1C)c1c(Cl)cccc1Cl (stereo not drawn)	12900	4 nM	51700 nM	3200 nM	7200 nM	1900 nM	800	1800	475	158	134	59 nM	9300 nM	> 40000 nM	7900 nM	–
CCC(C)Sc1nc(C(CC)c2c(F)cccc2Cl)c(C)c(=O)[nH]1 (stereo not drawn)	> 56	–	> 3000 nM	–	–	> 3000 nM	–	–	–	–	–	2 nM	450 nM	–	120 nM	–
CCCN(C)c1nc(C(OC)c2c(F)cccc2F)c(C)c(=O)[nH]1 (stereo not drawn)	> 15600	5 nM	> 77800 nM	180 nM	230 nM	31 nM	20	26	–	4	40	35 nM	150 nM	1200 nM	1400 nM	34
CO[C@H](c1nc(SC(C)C)[nH]c(=O)c1C)c1c(F)cccc1Cl	> 1160	35 nM	> 40500 nM	1350 nM	3800 nM	380 nM	–	75	–	12	160	77 nM	950 nM	5800 nM	12300 nM	75
CCC(c1nc(SC(C)C)[nH]c(=O)c1C)c1c(F)cccc1Cl (stereo not drawn)	> 36	–	> 3000 nM	–	–	> 3000 nM	–	–	–	–	–	6 nM	420 nM	–	120 nM	–
CCC(c1nc(SC2CCCC2)[nH]c(=O)c1C)c1c(F)cccc1Cl (stereo not drawn)	> 5	–	> 3000 nM	–	–	> 3000 nM	–	–	–	–	–	4 nM	340 nM	–	68 nM	–
COC(c1nc(SC2CCCC2)[nH]c(=O)c1C)c1c(Cl)cccc1Cl (stereo not drawn)	3660	8 nM	29300 nM	4000 nM	7200 nM	2900 nM	500	900	362	131	88	95 nM	12400 nM	> 40000 nM	8400 nM	–
Cc1c(C(C)c2c(F)cccc2F)nc(SC(C)C)[nH]c1=O (stereo not drawn)	> 3000	–	> 3000 nM	–	–	–	–	–	–	–	–	–	–	–	–	–

— ChEMBL document CHEMBL4371047, “Effect of α-Methoxy Substitution on the Anti-HIV Activity of Dihydropyrimidin-4(3 H)-ones” (J Med Chem, 2019)
